Assay results published in patent publication US20240417398A1, “TETRAHYDRONAPTHYRIDINE AND RELATED ANALOGS FOR INHIBITING YAP/TAZ-TEAD” (SpringWorks Therapeutics, Inc., priority 2023, published 2024).

Each compound was assayed on YAP/TAZ-TEAD transcription (assay: Reporter gene assay for measuring the inhibition of YAP/TAZ-TEAD transcription (TEAD-responsive element luciferase reporter, Hek293T cells)). Conditions: Hek293T cells transfected with TEAD-responsive element luciferase reporter, 24 hours incubation.
Assay type: cell-based
Protocol: Hek293T cells were cultured in DMEM supplemented with 10% fetal bovine serum, Sodium pyruvate, Sodium bicarbonate, L-glutamine. The cells were harvested and transiently transfected with TEAD-responsive element luciferase reporter. Transfected cells were plated in 384-well plate containing pre-diluted compounds. After 24 hours incubation at 37° C./5% CO2, assay plates were cooled to room temperature and levelled to an equal volume per well, prior to the addition of 25 uL luciferase substrate SteadyLite (Perkin Elmer)/well. The plate was shaken for 10 min at 600 rpm, centrifuged for 1 min at 500 rpm and measured with an Envision reader (PerkinElmer). The amount of relative light units produced by the TEAD reporter was used to calculate the percentage of inhibition.
The percent of reporter inhibition was calculated in the presence of a positive control inhibitor (100% inhibition) versus a condition with the presence of the vehicle basal activity of the reporter (0% inhibition). The ability of a test compound to inhibit this activity was determined as: Percentage inhibition=[1-((RLU determined in the presence of vehicle−RLU determined for sample with test compound present) divided by (RLU determined in the presence of vehicle−RLU determined for sample with positive control inhibitor))]*100.
The activities of example compounds tested are depicted in Table 3. The activity ranges A, B and C refer to IC50 values in the reporter gene assay as follows: “A”: IC50<1 μM; “B”: 1 μM≤IC50 10 μM and “C”: IC50>10 μM; NT=not tested.
`C=CC(=O)NCC1Cc2ncccc2N(c2ccc(C(F)(F)F)cc2)C1` (single isomer, unassigned) [Cpd. No. 10-En2, (R)- or (S)-N-((1-(4-(trifluoromethyl)phenyl)-1,2,3,4-tetrahydro-1,5-naphthyridin-3-yl)methyl)acrylamide] was tested, and the IC50 was < 1000 nM.
`[2H]C([2H])([2H])C(=O)NCC1Cc2ncccc2N(c2ccc(C(F)(F)F)cc2)C1` (single isomer, unassigned) [Cpd. No. 34-En1, (R)- or (S)-N-((1-(4-(trifluoromethyl)phenyl)-1,2,3,4-tetrahydro-1,5-naphthyridin-3-yl)methyl)acetamide-2,2,2-d3] showed an IC50 of 1000 to 10000 nM.

Same assay, conditions: Homo sapiens, HEK-293T, 24 h, Hek293T cells transfected with TEAD-responsive element luciferase reporter, 24 hours incubation
Compound `COc1ccc2c(n1)CC(CNC(C)=O)CN2c1ccc(C(F)(F)F)cc1` (single isomer, unassigned) [Cpd. No. 22-En1, (R)- or (S)-N-((6-methoxy-1-(4-(trifluoromethyl)phenyl)-1,2,3,4-tetrahydro-1,5-naphthyridin-3-yl)methyl)acetamide] has an IC50 of 1000 to 10000 nM.
`CC(=O)NCC1Cc2ncc(F)cc2N(c2ccc(C(F)(F)F)cc2)C1` (centres unmarked) [Cpd. No. 50, N-((7-fluoro-1-(4-(trifluoromethyl)phenyl)-1,2,3,4-tetrahydro-1,5-naphthyridin-3-yl)methyl)acetamide] was tested, and the IC50 was < 1000 nM.
For `[2H]C([2H])([2H])C(=O)NCC1Cc2ncccc2N(c2ccc(C(F)(F)F)cc2)C1` (centres unmarked) [Cpd. No. 34, N-((1-(4-(trifluoromethyl)phenyl)-1,2,3,4-tetrahydro-1,5-naphthyridin-3-yl)methyl)acetamide-2,2,2-d3], the IC50 was < 1000 nM.
For `CC(=O)NCc1cc2c(c(-c3ccc(C(F)(F)F)cc3)c1)CNCC2` [Cpd. No. 32, N-((8-(4-(trifluoromethyl)phenyl)-1,2,3,4-tetrahydroisoquinolin-6-yl)methyl)acetamide], the IC50 was > 10000 nM.
Work on `CS(=O)(=O)NCC1Cc2c(OCc3cc(=O)[nH]c(=O)[nH]3)cccc2N(c2ccc(C(F)(F)F)cc2)C1` (centres unmarked) [Cpd. No. 8, N-((5-((2,6-dioxo-1,2,3,6-tetrahydropyrimidin-4-yl)methoxy)-1-(4-(trifluoromethyl)phenyl)-1,2,3,4-tetrahydroquinolin-3-yl)methyl)methanesulfonamide] yielded an IC50 of 1000 to 10000 nM.
For `CCc1ccc2c(n1)CC(CNC(C)=O)CN2c1ccc(C(F)(F)F)cc1` (centres unmarked) [Cpd. No. 55, N-((6-ethyl-1-(4-(trifluoromethyl)phenyl)-1,2,3,4-tetrahydro-1,5-naphthyridin-3-yl)methyl)acetamide], the IC50 was < 1000 nM.
For `CC(=O)NCC1Cc2ncc(N)cc2N(c2ccc(C(F)(F)F)cc2)C1` (centres unmarked) [Cpd. No. 49, N-((7-amino-1-(4-(trifluoromethyl)phenyl)-1,2,3,4-tetrahydro-1,5-naphthyridin-3-yl)methyl)acetamide], the IC50 was 1000 to 10000 nM.
`O=C(CC(F)(F)F)NCC1Cc2ncccc2N(c2ccc(C(F)(F)F)cc2)C1` (single isomer, unassigned) [Cpd. No. 38-En1, (R)- or (S)-3,3,3-trifluoro-N-((1-(4-(trifluoromethyl)phenyl)-1,2,3,4-tetrahydro-1,5-naphthyridin-3-yl)methyl)propanamide] showed an IC50 of 1000 to 10000 nM.
For `CC(=O)NCC1Cc2nc(Br)ccc2N(c2ccc(C(F)(F)F)cc2)C1` (centres unmarked) [Cpd. No. 62, N-((6-bromo-1-(4-(trifluoromethyl)phenyl)-1,2,3,4-tetrahydro-1,5-naphthyridin-3-yl)methyl)acetamide], the IC50 was < 1000 nM.
Compound `COC(=O)NCC1Cc2ncccc2N(c2ccc(C(F)(F)F)cc2)C1` (single isomer, unassigned) [Cpd. No. 15-En2, (R)- or (S)-methyl ((1-(4-(trifluoromethyl)phenyl)-1,2,3,4-tetrahydro-1,5-naphthyridin-3-yl)methyl)carbamate] has an IC50 of 1000 to 10000 nM.
For `CC(=O)NCc1cc2c(c(-c3ccc(C(F)(F)F)cc3)c1)CN(C)CC2` [Cpd. No. 46, N-((2-methyl-8-(4-(trifluoromethyl)phenyl)-1,2,3,4-tetrahydroisoquinolin-6-yl)methyl)acetamide], the IC50 was > 10000 nM.
In the case of `C=CC(=O)NCc1cc2c(c(-c3ccc(C(F)(F)F)cc3)c1)CNCC2` [Cpd. No. 33, N-((8-(4-(trifluoromethyl)phenyl)-1,2,3,4-tetrahydroisoquinolin-6-yl)methyl)acrylamide], the IC50 is reported as < 1000 nM.
With `CC(=O)NCC1Cc2ncc(Br)cc2N(c2ccc(C(F)(F)F)cc2)C1` (centres unmarked) [Cpd. No. 44, N-((7-bromo-1-(4-(trifluoromethyl)phenyl)-1,2,3,4-tetrahydro-1,5-naphthyridin-3-yl)methyl)acetamide] the IC50 was < 1000 nM.
In the case of `CC(=O)NCC1(C)Cc2ncccc2N(c2ccc(C(F)(F)F)cc2)C1` (centres unmarked) [Cpd. No. 47, N-((3-methyl-1-(4-(trifluoromethyl)phenyl)-1,2,3,4-tetrahydro-1,5-naphthyridin-3-yl)methyl)acetamide], the IC50 is reported as < 1000 nM.
In the case of `C#Cc1ccc2c(n1)CC(CNC(C)=O)CN2c1ccc(C(F)(F)F)cc1` (centres unmarked) [Cpd. No. 63, N-((6-ethynyl-1-(4-(trifluoromethyl)phenyl)-1,2,3,4-tetrahydro-1,5-naphthyridin-3-yl)methyl)acetamide], the IC50 is reported as < 1000 nM.
Compound `CC(=O)NCC1Cc2c(ccc[n+]2[O-])N(c2ccc(C(F)(F)F)cc2)C1` (centres unmarked) [Cpd. No. 16, 7-(acetamidomethyl)-5-(4-(trifluoromethyl)phenyl)-5,6,7,8-tetrahydro-1,5-naphthyridine 1-oxide] has an IC50 of 1000 to 10000 nM.
In the case of `O=C1CC[C@@H](C(=O)NCC2Cc3ncccc3N(c3ccc(C(F)(F)F)cc3)C2)N1` (stereo partly drawn) [Cpd. No. 28, (2S)-5-oxo-N-((1-(4-(trifluoromethyl)phenyl)-1,2,3,4-tetrahydro-1,5-naphthyridin-3-yl)methyl)pyrrolidine-2-carboxamide], the IC50 is reported as > 10000 nM.
With `CC(=O)NCC1Cc2c(ccc(=O)n2C)N(c2ccc(C(F)(F)F)cc2)C1` (centres unmarked) [Cpd. No. 48, N-((5-methyl-6-oxo-1-(4-(trifluoromethyl)phenyl)-1,2,3,4,5,6-hexahydro-1,5-naphthyridin-3-yl)methyl)acetamide] the IC50 was > 10000 nM.
In the case of `O=C(Cc1ccccc1)NCC1Cc2ncccc2N(c2ccc(C(F)(F)F)cc2)C1` (centres unmarked) [Cpd. No. 35, 2-phenyl-N-((1-(4-(trifluoromethyl)phenyl)-1,2,3,4-tetrahydro-1,5-naphthyridin-3-yl)methyl)acetamide], the IC50 is reported as 1000 to 10000 nM.
`CC(=O)NCC1Cc2ncccc2N(c2ccc(C(F)(F)F)cn2)C1` (centres unmarked) [Cpd. No. 53, N-((1-(5-(trifluoromethyl)pyridin-2-yl)-1,2,3,4-tetrahydro-1,5-naphthyridin-3-yl)methyl)acetamide] was tested, and the IC50 was 1000 to 10000 nM.
`CS(=O)(=O)NCC1Cc2c(Oc3cccnc3)cccc2N(c2ccc(C(F)(F)F)cc2)C1` (centres unmarked) [Cpd. No. 2, N-((5-(pyridin-3-yloxy)-1-(4-(trifluoromethyl)phenyl)-1,2,3,4-tetrahydroquinolin-3-yl)methyl)methanesulfonamide] was tested, and the IC50 was 1000 to 10000 nM.
With `C=CC(=O)NCC1Cc2c(Oc3cccnc3)cccc2N(c2ccc(C(F)(F)F)cc2)C1` (centres unmarked) [Cpd. No. 3, N-((5-(pyridin-3-yloxy)-1-(4-(trifluoromethyl)phenyl)-1,2,3,4-tetrahydroquinolin-3-yl)methyl)acrylamide] the IC50 was < 1000 nM.
With `CC(=O)NCC1Cc2nccnc2N(c2ccc(C(F)(F)F)cc2)C1` (centres unmarked) [Cpd. No. 56, N-((5-(4-(trifluoromethyl)phenyl)-5,6,7,8-tetrahydropyrido[2,3-b]pyrazin-7-yl)methyl)acetamide] the IC50 was < 1000 nM.
In the case of `CC(=O)NCC1Cc2nc(C(N)=O)ccc2N(c2ccc(C(F)(F)F)cc2)C1` (centres unmarked) [Cpd. No. 59, 7-(acetamidomethyl)-5-(4-(trifluoromethyl)phenyl)-5,6,7,8-tetrahydro-1,5-naphthyridine-2-carboxamide], the IC50 is reported as > 10000 nM.
With `CNS(=O)(=O)NCC1Cc2ncccc2N(c2ccc(C(F)(F)F)cc2)C1` (centres unmarked) [Cpd. No. 19, N-(methylsulfamoyl)-1-[1-[4-(trifluoromethyl)phenyl]-3,4-dihydro-2H-1,5-naphthyridin-3-yl]methanamine] the IC50 was < 1000 nM.
In the case of `CC(=O)NCC1Cc2nc(N(C)C)ccc2N(c2ccc(C(F)(F)F)cc2)C1` (centres unmarked) [Cpd. No. 52, N-((6-(dimethylamino)-1-(4-(trifluoromethyl)phenyl)-1,2,3,4-tetrahydro-1,5-naphthyridin-3-yl)methyl)acetamide], the IC50 is reported as < 1000 nM.
For `CC(=O)NCC1Cc2ncc(Cl)cc2N(c2ccc(C(F)(F)F)cc2)C1` (centres unmarked) [Cpd. No. 51, N-((7-chloro-1-(4-(trifluoromethyl)phenyl)-1,2,3,4-tetrahydro-1,5-naphthyridin-3-yl)methyl)acetamide], the IC50 was < 1000 nM.
`CC(=O)NCC1Cc2c(ccn(C)c2=O)N(c2ccc(C(F)(F)F)cc2)C1` (centres unmarked) [Cpd. No. 54, N-((6-methyl-5-oxo-1-(4-(trifluoromethyl)phenyl)-1,2,3,4,5,6-hexahydro-1,6-naphthyridin-3-yl)methyl)acetamide] was tested, and the IC50 was < 1000 nM.
In the case of `O=C1CCCN1CC1Cc2ncccc2N(c2ccc(C(F)(F)F)cc2)C1` (centres unmarked) [Cpd. No. 31, 1-((1-(4-(trifluoromethyl)phenyl)-1,2,3,4-tetrahydro-1,5-naphthyridin-3-yl)methyl)pyrrolidin-2-one], the IC50 is reported as > 10000 nM.
With `CC(=O)NCC1Cc2c(cc[nH]c2=O)N(c2ccc(C(F)(F)F)cc2)C1` (centres unmarked) [Cpd. No. 27, N-((5-oxo-1-(4-(trifluoromethyl)phenyl)-1,2,3,4,5,6-hexahydro-1,6-naphthyridin-3-yl)methyl)acetamide] the IC50 was > 10000 nM.
